# Results: ChEMBL document CHEMBL1157961, “Nitrogen-containing phorbol esters from Croton ciliatoglandulifer and their effects on cyclooxygenases-1 and -2” (J Nat Prod, 2006)
# Columns and labels:
# [1] = target: T1, Prostaglandin G/H synthase 1 (Ovis aries, UniProt P05979); assay: Inhibition of ovine COX1
# T1 sequence (P05979 whole entry): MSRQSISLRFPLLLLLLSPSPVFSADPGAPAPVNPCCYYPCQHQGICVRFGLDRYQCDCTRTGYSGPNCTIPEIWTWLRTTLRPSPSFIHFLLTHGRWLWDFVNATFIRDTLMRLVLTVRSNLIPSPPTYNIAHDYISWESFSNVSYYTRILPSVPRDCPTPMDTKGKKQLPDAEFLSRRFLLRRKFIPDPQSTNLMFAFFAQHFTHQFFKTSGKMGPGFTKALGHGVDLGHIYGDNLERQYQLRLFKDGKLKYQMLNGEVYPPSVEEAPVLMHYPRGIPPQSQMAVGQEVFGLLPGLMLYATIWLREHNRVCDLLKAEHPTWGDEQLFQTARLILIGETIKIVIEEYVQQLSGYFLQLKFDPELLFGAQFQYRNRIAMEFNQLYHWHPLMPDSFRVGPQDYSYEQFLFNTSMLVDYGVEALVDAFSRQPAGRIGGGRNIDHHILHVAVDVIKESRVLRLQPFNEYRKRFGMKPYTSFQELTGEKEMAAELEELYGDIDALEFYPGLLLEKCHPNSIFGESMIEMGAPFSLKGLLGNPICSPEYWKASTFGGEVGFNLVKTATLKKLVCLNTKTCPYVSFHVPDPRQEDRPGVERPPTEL
# [2] = target: T2, Prostaglandin G/H synthase 2 (Homo sapiens, UniProt P35354); assay: Inhibition of human recombinant COX2
# T2 sequence (P35354 whole entry): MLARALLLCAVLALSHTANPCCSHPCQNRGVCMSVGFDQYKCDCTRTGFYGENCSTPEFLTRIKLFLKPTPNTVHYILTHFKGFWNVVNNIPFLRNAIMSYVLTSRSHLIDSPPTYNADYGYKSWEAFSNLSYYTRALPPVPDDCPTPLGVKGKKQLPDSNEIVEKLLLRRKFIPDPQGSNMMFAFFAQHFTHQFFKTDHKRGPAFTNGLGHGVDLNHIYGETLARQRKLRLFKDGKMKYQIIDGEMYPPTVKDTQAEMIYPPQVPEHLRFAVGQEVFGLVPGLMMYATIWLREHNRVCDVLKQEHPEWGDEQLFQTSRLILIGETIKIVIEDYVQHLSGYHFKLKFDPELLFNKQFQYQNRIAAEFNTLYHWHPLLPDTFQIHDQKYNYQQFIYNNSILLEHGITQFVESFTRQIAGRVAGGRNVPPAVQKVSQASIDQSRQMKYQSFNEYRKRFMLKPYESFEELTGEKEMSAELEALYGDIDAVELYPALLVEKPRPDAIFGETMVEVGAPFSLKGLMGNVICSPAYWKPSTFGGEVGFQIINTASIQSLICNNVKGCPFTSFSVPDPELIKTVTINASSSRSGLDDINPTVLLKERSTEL
Structure (SMILES),IC50 [1] [nM],IC50 [2] [nM]
CC(=O)O[C@@]12[C@H](OC(=O)[C@@H](C(C)C)N(C)C)[C@@H](C)[C@@]3(O)[C@@H](C=C(CO)C[C@@]4(O)C(=O)C(C)=C[C@@H]34)[C@@H]1C2(C)C,1,2200
CC(=O)O[C@@]12[C@H](OC(=O)[C@H](C(C)C)N(C)C)[C@@H](C)[C@]3(O)[C@@H]4C=C(C)C(=O)[C@@H]4CC(CO)=C[C@H]3[C@@H]1C2(C)C,> 100000,> 100000
CC(=O)O[C@@]12[C@H](OC(=O)[C@@H](C(C)C)N(C)C)[C@@H](C)[C@]3(O)[C@@H]4C=C(C)C(=O)[C@@H]4CC(CO)=C[C@H]3[C@@H]1C2(C)C,1,2200
CC(=O)O[C@@]12[C@H](OC(=O)C(=C(C)C)N(C)C)[C@@H](C)[C@]3(O)[C@@H]4C=C(C)C(=O)[C@@H]4CC(CO)=C[C@H]3[C@@H]1C2(C)C,,> 100000
